Data reported in paper PMC12486152, “Design, modular synthesis and screening of 58 shape-diverse 3-D fragments” (Chemical Science, 2025).

Molecular target: T1, N-acetylglucosaminyltransferase V (MGATV) (Homo sapiens, UniProt Q09328)
T1 construct: gene MGAT5
Assay: X-ray crystal structure by soaking; also thermal shift, STD NMR and enzyme (UDP-Glo) inhibition (IC50, n = […])
Format: biochemical

T1 sequence (Q09328 214-741): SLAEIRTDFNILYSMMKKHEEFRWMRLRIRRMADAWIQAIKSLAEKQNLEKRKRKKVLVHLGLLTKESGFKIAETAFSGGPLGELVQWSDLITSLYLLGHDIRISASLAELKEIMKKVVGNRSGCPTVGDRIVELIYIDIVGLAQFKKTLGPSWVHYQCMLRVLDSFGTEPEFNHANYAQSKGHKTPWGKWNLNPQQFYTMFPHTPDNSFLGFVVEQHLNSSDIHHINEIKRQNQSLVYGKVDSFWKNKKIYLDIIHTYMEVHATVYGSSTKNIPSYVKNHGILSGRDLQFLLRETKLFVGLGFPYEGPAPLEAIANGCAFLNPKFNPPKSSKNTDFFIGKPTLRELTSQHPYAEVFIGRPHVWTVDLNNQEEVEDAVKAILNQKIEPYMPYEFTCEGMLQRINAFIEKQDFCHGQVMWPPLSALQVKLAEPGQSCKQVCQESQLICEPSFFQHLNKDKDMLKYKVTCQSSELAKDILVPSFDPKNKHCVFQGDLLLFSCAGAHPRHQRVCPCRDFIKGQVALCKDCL

CC(=O)N1CCCC(C(=O)O)(c2ccc(C)cc2)C1 (racemic) [8p] was tested, and the IC50 was roughly 4.4 mM.
